Measured values as given in publication PMC5706701, “Development of a homogenous high-throughput assay for inositol hexakisphosphate kinase 1 activity” (PLoS ONE, 2017).
Structures can show the parent of a compound that is named as a salt. Where two headings read alike, the source gives them in different places.

Biological target: T1, Human IP6K1 (Homo sapiens, UniProt Q92551)
T1 construct: GST (N, cleaved yes); made in house; host or cells: C43 E. coli, pGEX-6P-2
Experiment: IP6K1 high-throughput screen of the Sigma LOPAC (ADP-Glo Max, single point);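 note: final compound concentration 10µM in 5% DMSO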
Assay type: biochemical

[1] = LOPAC single-point screen, ADP-Glo Max raw signal per well
[2] = LOPAC single-point screen, Z-score from raw signal with plate average and StDev
[3] = LOPAC single-point screen, ADP-Glo Max luminescence raw signal per well
[4] = LOPAC single-point screen, Z-score relative to plate average and StDev
[5] = LOPAC single-point screen, Z-score from plate average and StDev
[6] = LOPAC single-point screen, Z-score against plate average and StDev
[7] = Sigma LOPAC single-point screen, ADP-Glo Max raw signal per well
[8] = Sigma LOPAC single-point screen, Z-score from plate average and StDev

T1 sequence (Q92551 whole entry): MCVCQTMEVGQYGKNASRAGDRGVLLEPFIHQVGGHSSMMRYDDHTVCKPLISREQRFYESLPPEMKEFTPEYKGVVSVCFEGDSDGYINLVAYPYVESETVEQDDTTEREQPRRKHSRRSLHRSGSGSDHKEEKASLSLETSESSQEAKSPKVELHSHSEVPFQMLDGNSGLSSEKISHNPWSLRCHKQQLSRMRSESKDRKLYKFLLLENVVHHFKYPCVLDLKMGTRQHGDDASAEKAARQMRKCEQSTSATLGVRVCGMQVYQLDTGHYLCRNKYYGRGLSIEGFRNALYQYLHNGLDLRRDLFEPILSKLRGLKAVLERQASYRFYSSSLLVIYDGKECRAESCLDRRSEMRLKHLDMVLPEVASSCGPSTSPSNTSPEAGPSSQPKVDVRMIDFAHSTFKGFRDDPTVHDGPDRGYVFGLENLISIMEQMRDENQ

Row | SMILES | Raw Signal [1] | Raw Signal [3] | Z-score [4] | also measured
1 | O=C(O)Cc1ccccc1Nc1c(Cl)cccc1Cl [Diclofenac sodium] | 53274 |  |  | Z-score [2]: -0.3845
2 | CC(=O)N[C@@H](Cc1c[nH]c2ccccc12)C(=O)OCc1cc(C(F)(F)F)cc(C(F)(F)F)c1 [L-732,138] |  | 53722 | -0.7382 | 
3 | CCCOC(=O)c1c(-c2ccccc2)nc(CC)c(C(=O)SCC)c1CCC [MRS 1523] | 53053 |  |  | Z-score [2]: -0.2252
4 | CC1Cc2cc3c(cc2C(c2ccc(N)cc2)=NN1)OCO3 (stereo not drawn) [GYKI 52895] |  | 63898 |  | Z-score [5]: 1.773
5 | OCCN(CCO)c1nc(N2CCCCC2)c2nc(N(CCO)CCO)nc(N3CCCCC3)c2n1 [Dipyridamole] |  | 52429 | -0.5561 | 
6 | O=C(O)c1cccnc1Nc1cccc(C(F)(F)F)c1 [Niflumic acid] |  | 47033 | -1.237 | 
7 | NCCc1ccc(O)c(O)c1 [Dopamine hydrochloride] |  | 44704 | -2.125 | 
8 | Cl.O=C(O)C1CCCN(CCC=C(c2ccccc2)c2ccccc2)C1 (stereo not drawn) [SKF 89976A hydrochloride] | 57225 |  |  | Z-score [6]: 0.2334
9 | Cl.Cl.NCCC(=O)NCCc1c[nH]cn1 [Carcinine dihydrochloride] |  | 35878 | -3.881 | 
10 | N=C(NCCC[C@H](N)C(=O)O)N[N+](=O)[O-] [NG-Nitro-L-arginine] |  |  |  | Raw Signal [7]: 57372; Z-score [8]: 0.5005
11 | COc1cc2nc(N3CCN(C(=O)c4ccco4)CC3)nc(N)c2cc1OC [Prazosin hydrochloride] | 56945 |  |  | Z-score [6]: 0.179
12 | O=C1CN(/N=C/c2ccc(-c3ccc([N+](=O)[O-])cc3)o2)C(O)=N1 [Dantrolene sodium] |  | 49715 | -1.107 | 
13 | CC(C)(C)NCC(O)c1cc(O)cc(O)c1.CC(C)(C)NCC(O)c1cc(O)cc(O)c1.O=S(=O)(O)O (stereo not drawn) [Terbutaline hemisulfate] |  |  |  | Raw Signal [7]: 59192; Z-score [8]: 0.6155
14 | N=C(N)NC(CCC(=O)O)C(=O)O (stereo not drawn) [alpha-Guanidinoglutaric acid] | 54052 |  |  | Z-score [2]: -0.2265
15 | COc1[nH]c2ccc(F)cc2c1C(=O)OCC1CCN(CCNS(C)(=O)=O)CC1.NS(=O)(=O)O [GR 125487 sulfamate salt] |  | 51618 | -0.7208 | 
16 | CN(C)CCCC1(c2ccc(F)cc2)OCc2cc(C#N)ccc21 (stereo not drawn) [Citalopram hydrobromide] | 58251 |  |  | Z-score [6]: 0.05951
17 | CCc1c(C(=O)OC)ncc2[nH]c3cc(OC)c(OC)cc3c12 |  |  |  | Raw Signal [7]: 57006; Z-score [8]: 0.3735
18 | O=C1O/C(=C/Br)CCC1c1cccc2ccccc12 (stereo not drawn) [Bromoenol lactone] |  | 52508 | -0.952 | 
19 | CN1[C@@H](CC(=O)c2ccccc2)CCC[C@H]1C[C@H](O)c1ccccc1.Cl [alpha-Lobeline hydrochloride] | 53929 |  |  | Z-score [6]: -0.07805
20 | CC(C)N(CCC(C(N)=O)(c1ccccc1)c1ccccn1)C(C)C (stereo not drawn) [Disopyramide phosphate] | 54365 |  |  | Z-score [2]: -0.1629
21 | OC(CCN1CCCCC1)(c1ccccc1)C1CCCCC1 (stereo not drawn) [Trihexyphenidyl hydrochloride] |  |  |  | Raw Signal [7]: 57771; Z-score [8]: 0.3394

Row | SMILES | Raw Signal [1] | Raw Signal [3] | Z-score [4] | also measured
22 | CCN(CC)CCNC(=O)c1ccc(N)cc1 [Procainamide hydrochloride] |  | 51793 | -0.822 | 
23 | N[C@@H](CS(=O)O)C(=O)O [L-Cysteinesulfinic Acid] | 57943 |  |  | Z-score [6]: 0.005266
24 | Cn1cnc([N+](=O)[O-])c1Sc1ncnc2nc[nH]c12 [Azathioprine] |  | 52333 | -0.9828 | 
25 | Cc1ccc(S(=O)(=O)NC(=O)NN2CCCCCC2)cc1 [Tolazamide] |  | 64192 |  | Z-score [5]: 1.587
26 | CC(C)[C@@]1(NC(=O)[C@@H]2C[C@@H]3c4cccc5[nH]cc(c45)C[C@H]3N(C)C2)O[C@@]2(O)[C@@H]3CCCN3C(=O)[C@H](Cc3ccccc3)N2C1=O.CS(=O)(=O)O [Dihydroergocristine methanesulfonate] |  | 65195 |  | Z-score [5]: 2.037
27 | Cc1ccc(S(=O)(=O)N[C@@H](CCCCN)C(=O)CCl)cc1.Cl |  | 53467 | -0.4967 | 
28 | CNCC[C@@H](Oc1ccc(C(F)(F)F)cc1)c1ccccc1.Cl [R-(-)-Fluoxetine hydrochloride] |  | 63921 |  | Z-score [5]: 1.778
29 | Cc1nc2c([nH]1)c(=O)n(C)c(=O)n2Cc1ccco1 [Furafylline] | 55994 |  |  | Z-score [6]: 0.1679
30 | CCNC(=O)[C@H]1O[C@@H](n2cnc3c(NCc4ccccc4)ncnc32)[C@H](O)[C@@H]1O [N6-Benzyl-5 -N-ethylcarboxamidoadenosine] | 59001 |  |  | Z-score [6]: 0.1916
31 | CCCCCCCCCCCCCCSCC(=O)O [Tetradecylthioacetic acid] | 56618 |  |  | Z-score [6]: 0.1154
32 | Clc1ccc(N2C[C@H]3CC[C@@H](C2)N3)nn1 [DBO-83] | 54063 |  |  | Z-score [2]: -0.2242
33 | CCOC(=O)N1CCC(=C2c3ccc(Cl)cc3CCc3cccnc32)CC1 [Loratadine] |  | 49648 | -0.7974 | 
34 | CC(C)(C)NC[C@H](O)COc1nsnc1N1CCOCC1.O=C(O)/C=C\C(=O)O [S(-)-Timolol maleate] | 57221 |  |  | Z-score [6]: 0.2326
35 | CCS(=O)(=O)Nc1cccc(C(=C2CCCCC2)c2cnc[nH]2)c1 [A-315456] | 57716 |  |  | Z-score [6]: -0.03471
36 | CN1CCc2ccccc2Cc2[nH]c3ccccc3c2CC1 [LE 300] |  |  |  | Raw Signal: 53844; Z-score: -0.09233
37 | NC/C=C\C(=O)O [cis-4-Aminocrotonic acid] |  | 52551 | -0.6747 | 
38 | Nc1cc(=O)[nH]c(N)n1 [2,6-Diamino-4-pyrimidinone] |  |  |  | Raw Signal [7]: 57244; Z-score [8]: 0.4218
39 | O=c1[nH]cc(F)c(=O)[nH]1 [5-Fluorouracil] |  | 52294 | -0.5835 | 
40 | N[C@@H](CC(=O)O)C(=O)O [L-Aspartic acid] | 58223 |  |  | Z-score [6]: 0.05458
41 | CCCN1CCC[C@@H]2Cc3nc(N)ncc3C[C@H]21.Cl.Cl [Quinelorane dihydrochloride] |  | 53110 | -0.5661 | 
42 | C=CC[N+](C)(C)c1ccc(CCC(=O)CCc2ccc([N+](C)(C)CC=C)cc2)cc1.[Br-].[Br-] [BW 284c51] | 57519 |  |  | Z-score [6]: -0.06941

Row | SMILES | Raw Signal [1] | Raw Signal [3] | Z-score [4] | also measured
43 | Clc1ccccc1C(c1ccccc1)(c1ccccc1)n1ccnc1 [Clotrimazole] |  |  |  | Raw Signal [7]: 61041; Z-score [8]: 0.5509
44 | CN(C)CCCN1c2ccccc2Sc2ccc(C(F)(F)F)cc21 [Triflupromazine hydrochloride] | 54007 |  |  | Z-score [2]: -0.3918
45 | C/C=C(/C)C(=O)O[C@H]1C(C)=C2[C@H]([C@@H]1OC(=O)CCCCCCC)[C@@](C)(OC(C)=O)C[C@H](OC(=O)CCC)[C@@]1(O)[C@H]2OC(=O)[C@@]1(C)O [Thapsigargin] | 56574 |  |  | Z-score [6]: 0.1069
46 | CCN(CC)CC.Nc1ncnc2c1ncn2C1OC2COP(O)(=S)O[C@@H]2[C@@H]1O (stereo partly drawn) [Rp-cAMPS triethylamine] |  |  |  | Raw Signal: 55695; Z-score: -0.3907
47 | O=C(/C=C/c1ccc(O)cc1)c1ccc(O)cc1O [Isoliquiritigenin] | 53778 |  |  | Z-score [2]: -0.1034
48 | C/C(O)=C(\C#N)C(=O)Nc1cc(Br)ccc1Br [LFM-A13] |  |  |  | Raw Signal [7]: 58610; Z-score [8]: 0.7085
49 | N=c1ccn2c(n1)O[C@H]1[C@H](O)[C@@H](CO)O[C@H]12 [Ancitabine hydrochloride] | 57428 |  |  | Z-score [6]: -0.08544
50 | O=c1c(O)c(-c2ccc(O)c(O)c2)oc2cc(O)cc(O)c12 [Quercetin dihydrate] |  | 52548 | -0.6753 | 
51 | COc1ccccc1N1CCN(CCN(C(=O)c2ccc(I)cc2)c2ccccn2)CC1.Cl [p-MPPI hydrochloride] |  |  |  | Raw Signal [7]: 60360; Z-score [8]: 1.003
52 | CCCNCC(O)COc1ccccc1C(=O)CCc1ccccc1 (stereo not drawn) [Propafenone hydrochloride] | 54187 |  |  | Z-score [6]: -0.0347
53 | COc1cc(CC(C)N)c(OC)cc1I.Cl (racemic) [(±)-DOI hydrochloride] |  | 52125 | -0.6178 | 
54 | N#Cc1cc2nc([O-])c([O-])nc2cc1[N+](=O)[O-].[Na+].[Na+] [CNQX disodium] | 53180 |  |  | Z-score [2]: -0.4035
55 | NCCCNCCCCNCCCN [Spermine tetrahydrochloride] |  | 52988 | -0.5898 | 
56 | Cl.NC1(C(=O)O)CCCCC1 |  | 53186 | -0.8326 | 
57 | N[C@@H](Cc1ccc(O)c(O)c1)C(=O)O [L-3,4-Dihydroxyphenylalanine] |  | 43363 | -2.397 | 
58 | CN(C)CCC=C1c2ccccc2COc2ccccc21 [Doxepin hydrochloride] |  |  |  | Raw Signal [7]: 58742; Z-score [8]: 0.726
59 | COc1ccccc1N1CCNCC1.Cl | 57311 |  |  | Z-score [6]: 0.2501
60 | Nc1nc(OCc2ccccc2)c2nc[nH]c2n1 [O6-benzylguanine] | 56623 |  |  | Z-score [2]: -0.2272
61 | CC(C)C(=O)Nc1ccc([N+](=O)[O-])c(C(F)(F)F)c1 [Flutamide] |  | 64684 |  | Z-score [5]: 1.9328
62 | CCCCN1CCC(COC(=O)c2cc(Cl)c(N)c3c2OCCO3)CC1.Cl [SB 204070 hydrochloride] |  |  |  | Raw Signal [7]: 60689; Z-score [8]: 0.9064
63 | CC(Cc1ccc(O)cc1)NCC(O)c1cc(O)cc(O)c1 (stereo not drawn) [Fenoterol hydrobromide] | 56195 |  |  | Z-score [6]: 0.2088
